In EP0565593B1, “REDUCING PESTICIDAL INTERACTIONS IN CROPS” (priority 1990, dated 1992):
Several values for one entry are separate records, joined by “and”; a condition that tells them apart may be missing. Equal values may be shown once. Read-outs that look alike come from different tables or passages of the source.

Experiments:
Corn [1] = assay: Greenhouse test, combination of Procedures II and III: insecticide in-furrow or in cover layer, herbicide and antidote incorporated in cover layer (Examples 1-3, 6; Tables 1-3, 6); assay type: in vivo; conditions: 3 weeks
Corn [2] = conditions: for antidote activity: COUNTER with BEACON, PURSUIT (POE) or XRD-498 (PPI), Tables 29-37
Giant foxtail (GIFT) = assay: whole plant or invertebrate; assay type: in vivo; conditions: for % Inhibition GIFT: in vivo
Velvetleaf (VELE) = assay type: in vivo, Abutilon theophrasti
Shattercane (SHCA) = assay type: in vivo
Corn [3] = test system: Corn
Corn [4] = assay: Greenhouse test Procedure VII: biocide and antidote in furrow, herbicide POE (Examples 39-42, 48-50, 56-58; Tables 38-41, 47-49, 55-57); assay type: in vivo; conditions: for % Inhibition Corn: C (COUNTER) + antidote in furrow
Excerpt: This procedure describes interaction among herbicide, biocide and antidote when the biocide and the antidote is applied to a soil furrow containing crop seed before emergence of the crop and the herbicide is applied after emergence of the crop and weeds. The soil and planting depth was described in Procedure IV. The containers for comparison, the biocide and antidote applications to soil furrows were described in Procedure VI. In this procedure, the seed beds of the first, second, third and fourth containers are covered by soil layers not treated with herbicide. The containers were then placed on a bench in a greenhouse and subirrigated as required for the duration of the test. The herbicide, dispersed or dissolved in water containing 0.25% v/v nonionic surfactant (X-77) was applied by a track sprayer (187 L/ha) to the emerged plants of the second, third and fourth containers about five days after planting. All treatments were run in duplicate. Plant response was observed according to Procedure IV. Variations in this procedure will be noted in the examples.
In this example, tests were conducted according to Procedure VII for the POE application of the herbicides following in-furrow application of COUNTER® 15G insecticide (BIOCIDE No. 1) and the antidote on the pre-planted test seeds. In this test, the herbicides were Nos. 1 (MON-12000), 10 (ALLY®) and #4 (HARMONY®) and the Antidote Nos. 1, 7, 12 and 33.
These in-furrow treatments comprised a 50-50 mix of blended granules of COUNTER with and without 5G granular antidotes at 7.4 + 7.4 mg/cm or 1.1 + 0.37 mg active ingredient (a.i.)/cm. The in-furrow initiation of the test was followed five (5) days later with POE application of the herbicides; observations were made eight (8) days later.
In another test, conducted simultaneously with that in Example 39, Herbicide Nos. 5 (chlorimuron ethyl, active ingredient in CLASSIC® herbicide), 7 (nicosulfuron, active ingredient in ACCENT® herbicide) and 15 (tribenuron methyl, active ingredient in EXPRESS® herbicide) were substituted as test herbicides.
In this example, using the same procedure as above, the following imidazolinone herbicides were used with the same insecticide/biocide and antidotes as above: Herb. No. 16 (imazaquin, a.i. in SCEPTER® herbicide; No. 19 (Code No. AC 222293, a.i. in ASSERT® herbicide); No. 6 (imazethapyr, a.i. in PURSUIT® herbicide and No. 18 (imazapyr, a.i. in ARSENAL® herbicide). Test results are shown in Table 40. Table 40
This example describes the testing of the above antidotes used in Examples 39-41 to safen negative synergy interactions between representative species of the class of herbicidal compounds identified as azolopyrimidine sulfonamides and COUNTER 15G. The same procedure used in the above examples was conducted in this test. In this test, the herbicides were formulated in 17% acetone and 83% water with 0.25% v/v X-77 surfactant.
In these tests (according to Procedure VII) the safeners in solution with acetone were applied in furrow to the soil, followed by COUNTER 15G granules at 227 g/305 m (8 oz./1000'). Applications were made in alternate rows in two separate 13.7 cm x 27.7 cm pans containing Dupo silt loam. Pans were seeded 1.3 cm deep, placed on benches in a greenhouse and subirrigated. BEACON was formulated in water with 0.25% v/v X-77 surfactant and applied by track sprayer at a rate of 187 L/Ha (20 gal/A). Weed species in this test were giant foxtail, shattercane and velvetleaf. The herbicide was applied five (5) days after PPI initiation and observation of test result (shown in Table 47) made eight (8) days later.
In Table 47 COUNTER 15G is abbreviated as "C" and the antidotes as "A" in the column headings which indicate the "C + A" ratios used in the tests. Control and COUNTER treatments are average of four (4) replications and COUNTER + Antidote treatments, average of 2 reps. […]

[5] = Antidote 4.48 + Biocide No. 1 8.96 Kg/Ha PPI, Herb. No. 8 0.07, 5 DAP, before herbicide application
[6] = Antidote 4.48 + Biocide No. 1 8.96 Kg/Ha PPI, Herb. No. 8 0.07 POE, 13 DAP
[7] = Antidote 4.48 + Biocide No. 1 8.96 Kg/Ha PPI, Herbicide No. 7 0.28 POE, 13 days after planting
[8] = Herb. […], 5 DAP, before herbicide application
[9] = Table 14: Herbicide No. 7 (ACCENT) 0.84 Kg/Ha POE + Biocide No. 2 8.96 Kg/Ha PPI + antidote 4.48 Kg/Ha PPI, 13 days after planting, 8 days after herbicide
[10] = […], 13 days after planting, 8 days after herbicide
[11] = […], observed 10 days after herbicide application
[12] = C:A Ratio 20, ACCENT 0.56 Kg/Ha POE
[13] = C:A Ratio 20, BEACON 0.28 Kg/Ha POE
[14] = C:A Ratio 40, ACCENT 0.56 Kg/Ha POE
[15] = C:A Ratio 40, BEACON 0.28 Kg/Ha POE
[16] = C:A Ratio 80, ACCENT 0.56 Kg/Ha POE
[17] = C:A Ratio 80, BEACON 0.28 Kg/Ha POE
[18] = C:A Ratio 160, ACCENT 0.56 Kg/Ha POE
[19] = C:A Ratio 160, BEACON 0.28 Kg/Ha POE

CNC(=O)Oc1cccc2c1OC(C)(C)C2 [Biocide No. 4, 2,3-Dihydro-2,2-dimethyl-7-benzofuranyl methylcarbamate, reference compound]
% Injury Corn (Corn [1]; Ex. 3: Insecticide 4 (227 g) alone): 5%

N#CCON=C(C#N)c1ccccc1 [Antidote No. 9, Benzeneacetonitrile, alpha-<(cyano-methoxy)imino>-]
antidote activity (Corn [2]): active safeners

C=CCSC(=S)N(C)c1ccccc1 [compound 29]
% Inhibition 5 DAP Corn (Corn [2]; [5]): 0% | % Inhibition 13 DAP Corn (Corn [2]; [6]): 65% | % Inhibition Corn (Corn [2]; [7]): 60% | % Inhibition 5 DAP Corn (Corn [2]; [8]): 0% | % Inhibition Corn (Corn [2]; [9]): 35% | % Inhibition Corn (Corn [2]; [10]): 35% | % Inhibition Corn (Corn [2]; [11]): 75% | % Inhibition 5 DAP Corn (Corn [2]; in vivo): 35% | % Inhibition 13 DAP Corn (Corn [2]; in vivo): 65% | % Inhibition GIFT (Giant foxtail (GIFT)): 55% and 75% and 65% and 95% | % Inhibition 5 DAP VELE (Velvetleaf (VELE); [5]): 0% | % Inhibition 13 DAP VELE (Velvetleaf (VELE); [6]): 95% | % Inhibition VELE (Velvetleaf (VELE); [7]): 70% | % Inhibition 5 DAP VELE (Velvetleaf (VELE); [8]): 0% | % Inhibition VELE (Velvetleaf (VELE); [9]): 70% | % Inhibition VELE (Velvetleaf (VELE); [10]): 65% | % Inhibition VELE (Velvetleaf (VELE); [11]): 75% | % Inhibition 5 DAP VELE (Velvetleaf (VELE); in vivo): 20% | % Inhibition 13 DAP VELE (Velvetleaf (VELE); in vivo): 95% | % Inhibition 5 DAP SHCA (Shattercane (SHCA); [5]): 40% | % Inhibition 13 DAP SHCA (Shattercane (SHCA); [6]): 80% | % Inhibition SHCA (Shattercane (SHCA); [7]): 70% | % Inhibition 5 DAP SHCA (Shattercane (SHCA); [8]): 10% | % Inhibition SHCA (Shattercane (SHCA); [9]): 80% | % Inhibition SHCA (Shattercane (SHCA); [10]): 85% | % Inhibition SHCA (Shattercane (SHCA); [11]): 60% | % Inhibition 5 DAP SHCA (Shattercane (SHCA); in vivo): 40% | % Inhibition 13 DAP SHCA (Shattercane (SHCA); in vivo): 85% | % Inhibition SHCA (Shattercane (SHCA); in vivo): 80% and 75% and 65% and 45%

CC1COc2ccccc2N1C(=O)C(Cl)Cl (centres unmarked) [Antidote No. 28, 4-(Dichloroacetyl)-3,4-dihydro-3-methyl-2H-1,4-benzoxazine]
safening, comparison (Corn [2]; Example 29, COUNTER with BEACON and ACCENT): comparable to MON-13900 (No. 1), but less effective than MON-7400 | safening (Corn [3]; DIAZINON + Herbicides 1, 21, 18, Example 53): Effective safening | safening (Corn [3]; malathion + Herbicides 1, 21, 18, Example 54): moderate to high degrees of safening

CCSC(=O)COC(c1ccccc1)c1ccccc1 [Antidote No. 51, Ethanethioic acid, 2-(diphenyl-methoxy)-, S-ethyl ester]
antidote activity (Corn [2]): most active

O=C(O)c1sc(Cl)nc1C(F)(F)F [Antidote No. 65, 5-Thiazolecarboxylic acid, 2-chloro-4-(trifluoromethyl)-]
antidote activity (Corn [2]): slightly more active than other thiazoles tested

O=C(C(Cl)Cl)N1CCOC12CCCCC2 [Antidote No. 16, 1-Oxa-4-azaspiro<4.5>decane, 4-(dichloroacetyl)-]
corn injury (Corn [4]; COUNTER 15G + BEACON/co-herbicide combinations, Example 56): reduced corn injury | safening, comparison (Corn [4]; COUNTER 15G/BEACON, Example 48): not as active as the other safeners | protecting corn, comparison (Corn [4]; COUNTER/BEACON (and ACCENT), Examples 49, 50): weak in safening effect

CCOP(=S)(OCC)SCSCC [Biocide No. 10, O,O-Diethyl S-[(ethylthio)methyl]phosphorodithioate, reference compound]
% Inhibition GIFT (Giant foxtail (GIFT)): 30% and 20% | % Inhibition SHCA (Shattercane (SHCA); in vivo): 25%

C=CCC(C)(C#N)Sc1ccc(C)cc1 (centres unmarked) [compound 32]
% Inhibition 5 DAP Corn (Corn [2]; [5]): 0% | % Inhibition 13 DAP Corn (Corn [2]; [6]): 75% | % Inhibition Corn (Corn [2]; [7]): 55% | % Inhibition 5 DAP Corn (Corn [2]; [8]): 0% | % Inhibition Corn (Corn [2]; [9]): 35% | % Inhibition Corn (Corn [2]; [10]): 25% | % Inhibition Corn (Corn [2]; [11]): 70% | % Inhibition 5 DAP Corn (Corn [2]; in vivo): 20% | % Inhibition 13 DAP Corn (Corn [2]; in vivo): 70% | % Inhibition Corn (Corn [2]; in vivo): 65% and 55% and 45% | activity in reducing corn injury (Corn [2]; primisulfuron POE + biocides PPI, Tables 8-10): either inactive or weakly active | % Inhibition 5 DAP VELE (Velvetleaf (VELE); [5]): 0% | % Inhibition 13 DAP VELE (Velvetleaf (VELE); [6]): 90% | % Inhibition VELE (Velvetleaf (VELE); [7]): 65% | % Inhibition 5 DAP VELE (Velvetleaf (VELE); [8]): 0% | % Inhibition VELE (Velvetleaf (VELE); [9]): 60% | % Inhibition VELE (Velvetleaf (VELE); [10]): 70% | % Inhibition VELE (Velvetleaf (VELE); [11]): 80% | % Inhibition 5 DAP VELE (Velvetleaf (VELE); in vivo): 0% | % Inhibition 13 DAP VELE (Velvetleaf (VELE); in vivo): 85% | % Inhibition 5 DAP SHCA (Shattercane (SHCA); [5]): 30% | % Inhibition 13 DAP SHCA (Shattercane (SHCA); [6]): 85% | % Inhibition SHCA (Shattercane (SHCA); [7]): 70% | % Inhibition SHCA (Shattercane (SHCA); [9]): 70% | % Inhibition SHCA (Shattercane (SHCA); [10]): 95% | % Inhibition SHCA (Shattercane (SHCA); [11]): 50% | % Inhibition 5 DAP SHCA (Shattercane (SHCA); in vivo): 30% | % Inhibition 13 DAP SHCA (Shattercane (SHCA); in vivo): 80%

O=C(O)COC(c1ccccc1)c1ccccc1 [compound 78]
% Inhibition Corn (Corn [4]; [12]): 25% | % Inhibition Corn (Corn [4]; [13]): 5% | % Inhibition Corn (Corn [4]; [14]): 20% | % Inhibition Corn (Corn [4]; [15]): 5% | % Inhibition Corn (Corn [4]; [16]): 40% | % Inhibition Corn (Corn [4]; [17]): 20% | % Inhibition Corn (Corn [4]; [18]): 60% | % Inhibition Corn (Corn [4]; [19]): 20%

O=C(OCc1ccccc1)c1sc(Cl)nc1C(F)(F)F [compound 7]
% Inhibition VELE (Velvetleaf (VELE); [10]): 65% | % Inhibition VELE (Velvetleaf (VELE); […], observed 7 days after POE (Table 35)): 75%

O=C(O)COC(c1ccccc1)c1ccccc1 [compound 79]
% Inhibition Corn (Corn [4]; [12]): 15% | % Inhibition Corn (Corn [4]; [13]): 0% | % Inhibition Corn (Corn [4]; [14]): 20% | % Inhibition Corn (Corn [4]; [15]): 5% | % Inhibition Corn (Corn [4]; [16]): 30% | % Inhibition Corn (Corn [4]; [17]): 15% | % Inhibition Corn (Corn [4]; [18]): 45% | % Inhibition Corn (Corn [4]; [19]): 20%

Cc1c(F)c(F)c(COC(=O)[C@@H]2[C@H](/C=C(\Cl)C(F)(F)F)C2(C)C)c(F)c1F (racemic) [Biocide No. 3, 2,3,5,6-tetrafluoro-4-methylbenzyl-(Z(-(1 RS, 3RS)-3-(2-Chloro-3,3,3-trifluoroprop-1-ethyl)-2,2-dimethyl-cyclopropane carboxylate, reference compound]
% Injury Corn (Corn [1]; Ex. 3: Insecticide 3 (227g) alone): 3%

O=C1OC(=O)c2cccc3cccc1c23 [Antidote No. 5, 1H,3H-Naphtho<1,8-cd>pyran-1,3-dione]
giant foxtail control (Giant foxtail (GIFT); XRD-498 + OP insecticides, Examples 24-27): reduction in giant foxtail control
